Experimental data taken from patent EP0615756B1 (priority 1993, dated 1994).
Structures can show the parent of a compound that is named as a salt. Where two headings read alike, the source gives them in different places.

Tests used:
[1] = cited from earlier work
Sprague-Dawley rats = test: Rat cold ethanol tail-flick test; assay type: in vivo; conditions: for % Analgesic effect 10% / % Analgesic effect 20% / % Analgesic effect 50%: 25 micromole per kg, intramuscularly
[2] = Percutaneous transport study in modified Franz diffusion cells; conditions: 37 °C
[3] = system: New Zealand white rabbits; test: Paw pressure test; assay type: in vivo; conditions: Figure 20
[4] = Plasma concentration after intramuscular injection (HPLC) in the paw pressure study; conditions: for half-life: rabbit, plasma, im
[5] = Figure 15; between 17 and 28 hours, p<0.05
[6] = Anesthesiology, vol.74, 53, 1991
[7] = in sesame oil, duration in days

CO[C@]12CC[C@@]3(C[C@@H]1[C@](C)(O)C(C)(C)C)[C@H]1Cc4ccc(O)c5c4[C@@]3(CCN1CC1CC1)[C@H]2O5 [buprenorphine]
dose needed to elicit the same analgesic effect [1, 6]: 0.3 mg

Oc1ccc2c(c1)[C@@]13CCCC[C@@]1(O)[C@@H](C2)N(CC1CCC1)CC3 [butorphanol]
dose needed to elicit the same analgesic effect [1, 6]: 2 mg

CN1CC[C@]23c4c5ccc(O)c4O[C@H]2[C@@H](O)C=C[C@H]3[C@H]1C5 [morphine]
dose needed to elicit the same analgesic effect ([1]; in vivo): 10 mg

O=C(Oc1ccc2c3c1O[C@H]1[C@@H](O)CC[C@@]4(O)[C@@H](C2)N(CC2CCC2)CC[C@]314)c1ccccc1 [nalbuphine benzoate]
% Analgesic effect 10% (Sprague-Dawley rats; [7]): 4.0 D
% Analgesic effect 20% (Sprague-Dawley rats; [7]): 4.0 D
% Analgesic effect 50% (Sprague-Dawley rats; [7]): 3.5 D

CCCCCCCCCC(=O)Oc1ccc2c3c1O[C@H]1[C@@H](O)CC[C@@]4(O)[C@@H](C2)N(CC2CCC2)CC[C@]314 [nalbuphine decanoate]
cumulative amount ([2]; under 24 hours, 5% nalbuphine decanoate in a jel of 2% CMC Na): 1.04±0.30 µ g/cm^2
cumulative amount ([2]; under 24 hours, jell containing 10% terpineol (5% nalbuphine decanoate, 2% CMC Na)): 3.31±0.45 µg/cm^2
cumulative amount ([2]; under 48 hours, 5% nalbuphine decanoate in a jel of 2% CMC Na): 1.67±0.38 µg/cm^2
cumulative amount ([2]; under 48 hours, jell containing 10% terpineol (5% nalbuphine decanoate, 2% CMC Na)): 5.78±0.81 µ g/cm^2
cumulative amount ([2]; under 72 hours, 5% nalbuphine decanoate in a jel of 2% CMC Na): 3.17±0.35 µ g/cm^2
cumulative amount ([2]; under 72 hours, jell containing 10% terpineol (5% nalbuphine decanoate, 2% CMC Na)): 9.87±1.44 µg/cm^2
analgesic effect for intramuscular injection (duration) ([3]; 0.): 18 h
% Analgesic effect 10% (Sprague-Dawley rats; [7]): 8.2 D
% Analgesic effect 20% (Sprague-Dawley rats; [7]): 7.5 D
% Analgesic effect 50% (Sprague-Dawley rats; [7]): 6.7 D
10% analgesic effect (Sprague-Dawley rats; table 2, longest duration): 197 h
50% analgesic effect (Sprague-Dawley rats; table 2, longest duration): 161 h
half-life ([4]; […]): 26 h
increase of duration compared with nalbuphine hydrochloride ([4]; rabbits, Figure 19): 30 times

CCCCCCC(=O)Oc1ccc2c3c1O[C@H]1[C@@H](O)CC[C@@]4(O)[C@@H](C2)N(CC2CCC2)CC[C@]314 [nalbuphine enanthate]
% Analgesic effect 10% (Sprague-Dawley rats; [7]): 3.6 D
% Analgesic effect 20% (Sprague-Dawley rats; [7]): 3.4 D
% Analgesic effect 50% (Sprague-Dawley rats; [7]): 3.0 D

Oc1ccc2c3c1O[C@H]1[C@@H](O)CC[C@@]4(O)[C@@H](C2)N(CC2CCC2)CC[C@]314 [nalbuphine hydrochloride, reference compound]
analgesic effect for intramuscular injection (duration) ([3]; 10 mg/kg): 0.75 h
% Analgesic effect 10% (Sprague-Dawley rats; duration in hours): 5.0 H
% Analgesic effect 20% (Sprague-Dawley rats; duration in hours): 4.4 H
% Analgesic effect 50% (Sprague-Dawley rats; duration in hours): 2.5 H
10% analgesic effect (Sprague-Dawley rats; rats, intramuscular injection): 2.4 h
20% analgesic effect (Sprague-Dawley rats; rats, intramuscular injection): 2.1 h
50% analgesic effect (Sprague-Dawley rats; rats, intramuscular injection, 25 micromole/kg): 1.1 h
10% analgesic effect (Sprague-Dawley rats; table 2): 12 h
50% analgesic effect (Sprague-Dawley rats; table 2): 2.5 h
half-life [4]: 0.85 h

CC(C)(C)C(=O)Oc1ccc2c3c1O[C@H]1[C@@H](O)CC[C@@]4(O)[C@@H](C2)N(CC2CCC2)CC[C@]314 [nalbuphine pivalate]
% Analgesic effect 10% (Sprague-Dawley rats; [7]): 3.8 D
% Analgesic effect 20% (Sprague-Dawley rats; [7]): 3.6 D
% Analgesic effect 50% (Sprague-Dawley rats; [7]): 3.2 D

CCC(=O)Oc1ccc2c3c1O[C@H]1[C@@H](O)CC[C@@]4(O)[C@@H](C2)N(CC2CCC2)CC[C@]314 [nalbuphine propionate]
% Analgesic effect 10% (Sprague-Dawley rats; duration in hours): 12 H
% Analgesic effect 20% (Sprague-Dawley rats; duration in hours): 11 H
% Analgesic effect 50% (Sprague-Dawley rats; duration in hours): 10 H
50% analgesic effect (Sprague-Dawley rats; table 2): 10 h

Oc1ccc2c3c1O[C@H]1[C@@H](O)CC[C@@]4(O)[C@@H](C2)N(CC2CCC2)CC[C@]314 [nalbuphine]
amount of released nalbuphine free base [5]: less in preparations with sesame oil than with peanut oil ester and the control
